# Source: patent US9956199B2, “Chromane-like cyclic prenylflavonoids for the medical intervention in neurological disorders” (priority 2011, dated 2018)
# Entries after “also recorded” stand apart in the source; their conditions may differ.
# Experiments:
# [1] = test system: mouse embryonic day 16 forebrain (MEF) cells; assay: normalized renilla luciferase activity (cell survival / relative cytotoxicity); type: cell-based; conditions: three days, FIG. 1D
# Procedure: Luciferase assays were performed using a noncommercial dual luciferase enzyme assay system (Dyer et al., 2000, Anal Biochem). In this system, a co-transfection with pDCX-Luci and a control vector driving Renilla-luciferase under the CMV promoter was performed. The two different luciferases have different specific substrates and, therefore, the DCX regulatory region driven firefly luciferase activity can be distinguished from CMV driven Renilla-luciferase. For analysis, the firefly luciferase activity was normalized against the CMV driven Renilla-luciferase. […]
# Elmer, Calif., USA) according to the manufacturer's instructions. Then, 100 μl of freshly prepared Renilla assay solution consisting of 1.1 M NaCl (VWR, Vienna, Austria), 2.2 mM Na2EDTA, 0.22 M KH2PO4 pH 5.1 (Merck, Darmstadt, Germany), 0.44 mg/mL BSA (Biomol, Hamburg, Germany), 1.3 mM NaN3 (Sigma-Aldrich, Taufkirchen, Germany), […] coelenterazine (p.j.k., Kleinblittersdorf, Germany) per well were added and measurements were performed using the Victor™ X Multilable Plate Reader as described above. Data were normalized the following way: i) firefly (FF) luciferase activity is related to the renilla (R) luciferase activity; and ii) the FF/R values of the individual samples are related to the FF/R value obtained by stimulation with the control medium and expressed as x-fold change compared to control. […]
# Neuro-2a cells = assay: neurite length in Neuro2a cells (GAP-43 staining); type: cell-based, mouse; conditions: 10 μM, 2 days, compared to control and RA/VPA
# Procedure: For more precise analysis of neurite length Neuro2a cells were selected and stimulated for 2 days with RA/VPA as positive control and ENDFs in MEM+10% FCS. Immunocytochemical analysis was performed using GAP43 antibody which is known as a strong neuronal plasticity marker.
# Neuro2a cells were grown in MEM with Earle's Salts (PAA, Pasching, Austria) containing 2 mM L-glutamine, 100 μg/ml Penicillin/Streptomycin (PAN Biotech GmbH, Aidenbach, Germany), 100 mM sodium pyruvate (Sigma-Aldrich, Taufkirchen, Germany) and 10% FCS (Lonza, Wuppertal, Germany).
# The cells were passaged with 6 ml trypsin 0.5 mg/ml+EDTA 0.22 mg/ml (PAA, Pasching, Austria) two times per week. For analysis of neurite length Neuro2a cells were seeded on coverslips in a 24 well plate coated with Poly-L-ornithine and Laminin in a differentiation media MEM with Earle's Salts (PAA, Pasching, Austria) containing 2 mM L-glutamine, 100 μg/ml Penicillin/Streptomycin (PAN Biotech GmbH, Aidenbach, Germany), 100 mM sodium pyruvate (Sigma-Aldrich, Taufkirchen, Germany) and 1% FCS (Lonza, Wuppertal, Germany) and treated for 2 days with retinoic acid plus valproic acid and compound 1a (ENDF1) 10 μM, compound 1b (ENDF3) 10 μM, compound 3a (ENDF2) 10 μM, or ENDF4 10 μM. Cells were fixed as described in Example 18. Immunostaining was performed using GAP-43 1:500 (AbD Serotec, Oxford, UK).
SMILES,normalized renilla activity (approximate measure of cell survival / relative cytotoxicity) [1],neurite length and branching (Neuro-2a cells)
"COc1cc2c(c(O)c1C(=O)/C=C/c1ccc(O)cc1)CCC(C)(C)O2 [Compound 1b, (E)-1-(5-hydroxy-7-methoxy-2,2-dimethylchroman-6-yl)-3-(4-hydroxyphenyl)prop-2-en-1-one]",significantly higher than that exerted by the reference compounds xanthohumol and osajin,longer growth of neurites as well as more elaborated branches; also recorded: strong and significant increase on neurite length and more elaborated branches
"COc1cc2c(c(O)c1C(=O)/C=C/c1ccc(O)cc1)C=CC(C)(C)O2 [Compound 1a, (E)-1-(5-hydroxy-7-methoxy-2,2-dimethyl-2H-chromen-6-yl)-3-(4-hydroxyphenyl)prop-2-en-1-one]",significantly higher than that exerted by the reference compounds xanthohumol and osajin,longer growth of neurites as well as more elaborated branches; also recorded: strong and significant increase on neurite length and more elaborated branches
